Laboratory results reported in patent publication US9023859B2, “Composition and method for treating or preventing skeletal muscle fibrosis” (State of Israel, Ministry of Agriculture, Agricultural …, priority 2007, dated 2015).

How the values were obtained:
Mdx mice [1] = experiment: Collagen content (Sirius red) and collagen α1(I) gene expression (in situ hybridization) in quadriceps and tibialis muscles; format: in vivo; details: I.P. 3 μg/mouse every other day, 4 weeks from 5 weeks of age
Procedure: Mdx mice were treated either with halofuginone by I.P. injection every other day (3 μg/mouse) starting at 5 weeks of age for 4 weeks, or with saline vehicle. C57B mice were used as controls. At the end of the 4 week period, tibialis anterior (fast) and quadriceps (slow) muscles were removed for evaluation of fibrosis by Sirius red staining for collagen content, and by in situ hybridization of collagen α1(I) gene expression.

Mdx mice [2] = experiment: Effect on fibrosis (collagen by Sirius red, image analysis) in diaphragm, gastrochnemius and tibialis muscles; format: in vivo; details: I.P. 5 μg/mouse every other day; for reduction of collagen levels: diaphragm; for reduction of collagen content: gastrochnemius
Procedure: Halofuginone was administered by I.P injection to mdx mice (n=7) from 3 weeks of age every other day at a concentration of 5 μg/mouse. The wild type (C57/BL) and mdx mice without halofuginone served as controls. At the age of 7 and 11 weeks the mice were sacrificed and the diaphragm, gastrochnemius and the tibialis were fixed for histology and samples were frozen for further analysis. Sections were stained for collagen by Sirius red and with methyl green as a counter stain. Image analysis using the Image Pro software was performed for statistical evaluation of the effect of halofuginone on collagen content. For the image analysis, images were taken from 3 animals/group and 4 replicates from each animal/tissue. The results are the ratio of red (R) to green color (G).

Mdx mice [3] = experiment: Effect on muscle regeneration (diaphragm central nuclei counting); format: in vivo, mouse; details: 5 μg or 7.5 μg for 1 or 2 months from 3 weeks of age; dose-dependent
Procedure: Mdx mice were treated with halofuginone 5 μg or 7.5 μg for 1 or 2 months starting at age of 3 weeks. The untreated mdx mice served as controls. At the end of the experiment, the diaphragms were taken for hematoxyline & eosin staining before central nuclei counting. The results are the mean±SE of 20 photos taken from 3 different mice. Each photo contained approximately 120 fibers

[4] = test system: myostatin gene expression; experiment: Myostatin gene expression in fibrotic liver (preliminary experiments); format: in vivo

O=C(CC1NCCC[C@H]1O)Cn1cnc2cc(Br)c(Cl)cc2c1=O (stereo in doubt) [halofuginone, 7-bromo-6-chloro-3-[3-(3-hydroxy-2-piperidinyl)-2-oxopropyl]-4(3H)-quinazolinone]
increase in amount of collagen fibers in mdx muscles (Mdx mice [1]; Sirius red): almost completely prevented
increase in expression of collagen α1(I) gene in mdx muscles (Mdx mice [1]; in situ hybridization): almost completely prevented
reduction of collagen levels (Mdx mice [2]; 7 weeks of age (4 weeks of treatment)): 25%
reduction of collagen levels (Mdx mice [2]; 11 weeks of age (8 weeks of treatment)): 53%
reduction of collagen content (Mdx mice [2]; 7 weeks of age): 25%
reduction of collagen content (Mdx mice [2]; 11 weeks of age): 33%
effect on collagen content (Mdx mice [2]; tibialis muscle): No effect
number of diaphragm central nuclei (Mdx mice [3]): major reduction
myostatin gene expression [4]: inhibition
